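Assay format: 96-well plates, 48-hour exposure. At the GI50, growth is halved. Definition used: TGI = concentration required for complete inhibition of growth.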
How the values were obtained:
Test in all cases: DTP human tumour cell line panel, 48 h
[1] = tested on: HCC-2998 colon
[2] = tested on: MDA-MB-231 breast
[3] = tested on: SNB-75 CNS
[4] = tested on: TK-10 renal
[5] = tested on: SK-MEL-2 melanoma
[6] = tested on: M14 melanoma
[7] = tested on: EKVX NSCLC
[8] = tested on: RPMI-8226 leukemia
[9] = tested on: MOLT-4 leukemia
[10] = tested on: A549 NSCLC

Compound | GI50 [1] [µM] | TGI [1] [µM] | GI50 [2] [µM] | TGI [2] [µM] | GI50 [3] [µM] | TGI [3] [µM] | GI50 [4] [µM] | TGI [4] [µM] | GI50 [5] [µM] | TGI [5] [µM] | TGI [6] [µM] | TGI [7] [µM] | TGI [8] [µM] | TGI [9] [µM] | TGI [10] [µM] | GI50 [6] [µM] | GI50 [7] [µM] | GI50 [8] [µM] | GI50 [9] [µM] | GI50 [10] [µM]
COc1ccc2c(c1)c(-c1nc(-c3c[nH]c4ncccc34)cs1)cn2CCCCN1CCCCC1 | 1.74 | 3.29 | 1.61 | 3.08 | 1.27 | 2.68 | 1.51 | 2.93 | 1.8 | 3.54 |  |  |  |  |  |  |  |  |  | 
Cc1nc2ccc(S(=O)(=O)Nc3nccs3)cc2c(=O)n1NS(=O)(=O)c1nccs1 |  | > 100 |  | > 100 |  | > 100 |  | > 100 |  | > 100 | > 100 | > 100 | > 100 | > 100 |  |  |  |  |  | 
CN(C)CCNC(=O)c1cccc2[nH]c(-c3ccccn3)nc12 |  | > 100 |  |  |  | 92.8 |  |  |  | > 100 |  | > 100 | 62.3 | 70.6 | > 100 |  |  |  |  | 
CCOC(=O)c1sc2nc(SC)nc(Nc3ccc4c(c3)OCCO4)c2c1N |  | > 100 |  | 25.9 |  |  |  | 30.3 |  | 33.7 | 31.7 | 26.6 | 77.1 | > 100 | > 100 |  |  |  |  | 
CNC(C)C(O)c1ccc2oc3cc(=O)c4ccccc4c-3nc2c1 (centres undefined) |  | > 100 |  | > 100 |  |  |  | > 100 |  | 64.2 | 16.1 | > 100 | > 100 | 54.8 | > 100 |  |  |  |  | 
CCCCC1C=Cn2c(=O)oc3c(OC(C)C)c(C)c(O)c1c32 (centres undefined) |  | 13.6 |  | 4.87 |  | 4.83 |  | 18.7 |  | 5.07 | 3.15 | 6.83 | 11.8 | 3.33 | 6.97 |  |  |  |  | 
O=C1c2ccccc2OCC12OC21C=CC(Cl)=CC1 (centres undefined) |  | 42.2 |  | 50.9 |  |  |  | > 100 |  | 59.1 | > 100 | 51.8 | 47.4 | 23.5 | 56.6 |  |  |  |  | 
O=C(CBr)c1ccc2cc(Br)c3ccccc3c2c1 |  | > 100 |  | 51.2 |  | 72.8 |  | 36.9 |  | 45.1 | 84 | 54.5 | > 100 | 37 | 76.7 |  |  |  |  | 
CCC(=O)OCN(C)c1nc(N(C)COC(=O)CC)nc(N(C)COC(=O)CC)n1 |  | 68.6 |  | > 100 |  | > 100 |  | > 100 |  | 42 | 77.3 |  | 76 | 82.9 |  |  |  |  |  | 
O=C(N[C@@H](Cc1coc2ccccc12)B(O)O)[C@@H]1C[C@H]2CC[C@@H]1O2 | 5.11 | 21.1 | 11.7 | > 100 | 2.78 | 38.2 | 2.44 | 11.5 | 6.08 | > 100 | 82.7 | > 100 | 5.2 | 48 | > 100 | 3.01 | 22.7 | 0.45 | 2.96 | 7.58
COc1ccc(C2COc3c(ccc(O)c3C)C2)cc1OC (centres undefined) |  | 121 |  |  |  | 110 |  |  |  | 154 |  | > 200 | 166 | > 183 | > 167 |  |  |  |  | 
COc1ccc(/C=N/n2cnc3c(c2=O)SC(=C(C#N)C#N)N3c2ccccc2)cc1 |  | > 100 |  |  |  | 72.4 |  | > 100 |  |  |  |  | > 100 | > 100 | > 100 |  |  |  |  | 
CCCO[C@@H]1[C@@H](OC(C)=O)[C@@H](OC(C)=O)C(C)(C)/C=C/[C@H](C)C(=O)[C@@]2(OC(C)=O)C[C@@](C)(OC(C)=O)[C@H](OC(C)=O)[C@@H]2[C@H]2OC(=O)CC[C@@]12OC(=O)c1ccccc1 |  | > 25 |  | > 25 |  | > 25 |  | > 25 |  | > 25 | > 25 | > 25 |  | > 25 |  |  |  |  |  | 
COC(=O)C1=C(OC)[C@H]2C#C/C=C\C#C[C@@H]3Nc4c(cc(O)c5c4C(=O)c4ccccc4C5=O)[C@]24O[C@@]34[C@H]1C |  | < 0.0135 |  | 0.0179 |  | < 0.01 |  | 0.176 |  | 0.206 | < 0.01 | 0.0335 | 0.0188 | < 0.01 | 0.111 |  |  |  |  | 
C/C(=N\NC(=S)N1CCCC1)c1nc2ncccc2[nH]1 |  | > 100 |  | > 100 |  | > 100 |  | 45 |  | 46.8 | 31.3 |  | 39.4 | 3.7 | > 100 |  |  |  |  | 
C(=Nc1ccc2c(c1)Cc1ccccc1-2)c1ccccn1 |  |  |  | > 100 |  | > 100 |  | > 100 |  | > 100 | > 100 | > 100 |  | > 100 | > 100 |  |  |  |  | 

Source: PubChem BioAssay (NCI)
